{"source": "patent US9107900B2", "about": "“Use of dronedarone for the preparation of a medicament for use in the prevention of cardiovascular hospitalization or of morality” (SANOFI, priority 2008, dated 2015)", "assay": "blood potassium level from regular blood samples in the same clinical study", "assay_type": "in vivo, human", "settings": "after the 24th month, taking into account the starting value; vs placebo; p<0.0001", "description": "The potassium concentration-modulating effect is clearly documented in the study by virtue of the results of analyses of regular blood samples taken throughout the duration of the study in the context of the monitoring of vital parameters.\nThe variations in potassium (in mmol/l) between the first and the last administration of the medicament of the study are included in FIG. 8, in which B signifies basal level, D signifies day and M signifies month.", "note": "Where a name gives a salt, the structure may show the parent alone."}
{"smiles": "CCCCc1oc2ccc(NS(C)(=O)=O)cc2c1C(=O)c1ccc(OCCCN(CCCC)CCCC)cc1", "note": "[dronedarone hydrochloride, 2-n-Butyl-3-[4-(3-di-n-butylaminopropoxy)benzoyl]-5-methylsulphonamidobenzofuran]", "values": [{"measurement": "change in blood potassium level (analysis of covariance)", "result": "significant different in favour of dronedarone"}]}
